For data set [1] the following is noted: 101.33 kPa, Liquid, Vibrating tube method.
Data set [2] is described as follows: activity coefficient (dimensionless); of the first substance listed, at infinite dilution; xn = mol fraction of the nth substance listed. Particulars: 101.33 kPa, Liquid, Chromatography, x1 = 0.

Broadly, the mass density is mass per unit of volume.

± gives the expanded uncertainty stated by the source.

As to `CO[PH](=O)[O-].Cn1cc[n+](C)c1` [1,3-dimethylimidazolium methyl phosphonate], the mass density in data set [1] (293.15 K) is given as 1252.5 ± 1.8 kg/m3; in data set [1] (303.15 K) it was 1246.4 ± 1.8 kg/m3; in data set [1] (313.15 K), 1241.7 ± 1.8 kg/m3; in data set [1] (323.15 K), 1233.4 ± 1.8 kg/m3; in data set [1] (333.15 K), 1227.2 ± 1.7 kg/m3; in data set [1] (343.15 K) it was 1220.8 ± 1.7 kg/m3.

`CCn1cc[n+](C)c1.CO[PH](=O)[O-]` [1-ethyl-3-methylimidazolium methyl phosphonate]: the mass density is recorded as 1190.6 ± 1.6 kg/m3 in data set [1] (293.15 K); 1184.1 ± 1.6 kg/m3 in data set [1] (303.15 K); 1180.1 ± 1.6 kg/m3 in data set [1] (313.15 K); 1174 ± 1.6 kg/m3 in data set [1] (323.15 K); 1168.7 ± 1.6 kg/m3 in data set [1] (333.15 K); 1163.2 ± 1.5 kg/m3 in data set [1] (343.15 K).

Regarding `C[N+](=O)[O-]` [nitromethane] + CCn1cc[n+](C)c1.CO[PH](=O)[O-], the activity coefficient was determined as 0.75 ± 0.049 in data set [2] (313.15 K), 0.787 ± 0.051 in data set [2] (333.15 K), 0.831 ± 0.054 in data set [2] (353.15 K) and 0.873 ± 0.056 in data set [2] (373.15 K).

As to `C[N+](=O)[O-]` [nitromethane] + CO[PH](=O)[O-].Cn1cc[n+](C)c1, the activity coefficient came to 0.8 ± 0.05 in data set [2] (313.15 K), 0.81 ± 0.05 in data set [2] (323.15 K), 0.82 ± 0.05 in data set [2] (333.15 K) and 0.83 ± 0.05 in data set [2] (343.15 K).

For `CCCCCCCCC` [nonane] + CCn1cc[n+](C)c1.CO[PH](=O)[O-], the results for the activity coefficient in data set [2] (313.15 K) and in data set [2] (333.15 K) were 617 ± 42 and 485 ± 33, respectively.

`CCCCCCCCC` [nonane] + CO[PH](=O)[O-].Cn1cc[n+](C)c1: the activity coefficient in data set [2] (313.15 K) was 1070 ± 74; in data set [2] (323.15 K) it was 1050 ± 72.

For the compound `CCCCCCCC` [octane] + CCn1cc[n+](C)c1.CO[PH](=O)[O-], the activity coefficient in data set [2] (313.15 K) was 461 ± 32.

For `CCCC(C)=O` [pentan-2-one] + CCn1cc[n+](C)c1.CO[PH](=O)[O-], the activity coefficient was found to be 6.12 ± 0.42 in data set [2] (313.15 K), 6.13 ± 0.42 in data set [2] (333.15 K), 6.15 ± 0.42 in data set [2] (353.15 K) and 6.18 ± 0.42 in data set [2] (373.15 K).

Consider `CCCC(C)=O` [pentan-2-one] + CO[PH](=O)[O-].Cn1cc[n+](C)c1, for which the activity coefficient in data set [2] (313.15 K) came to 10.6 ± 0.7; in data set [2] (323.15 K), 10.5 ± 0.7; in data set [2] (333.15 K), 10.3 ± 0.7; in data set [2] (343.15 K), 10.1 ± 0.7.

Consider `CCC(=O)CC` [pentan-3-one] + CCn1cc[n+](C)c1.CO[PH](=O)[O-], for which the activity coefficient turned out to be 5.77 ± 0.39 in data set [2] (313.15 K), 5.88 ± 0.4 in data set [2] (333.15 K), 6 ± 0.41 in data set [2] (353.15 K) and 6.17 ± 0.42 in data set [2] (373.15 K).

Regarding `CCC(=O)CC` [pentan-3-one] + CO[PH](=O)[O-].Cn1cc[n+](C)c1, the activity coefficient worked out at 10.2 ± 0.7 in data set [2] (313.15 K), 10.1 ± 0.7 in data set [2] (323.15 K), 10.1 ± 0.7 in data set [2] (333.15 K) and 10 ± 0.7 in data set [2] (343.15 K).

For the compound `CCCO` [propan-1-ol] + CCn1cc[n+](C)c1.CO[PH](=O)[O-], the activity coefficient in data set [2] (353.15 K) is 0.207 ± 0.029; in data set [2] (373.15 K), 0.214 ± 0.029.

Turning to `CCCO` [propan-1-ol] + CO[PH](=O)[O-].Cn1cc[n+](C)c1, in data set [2] (343.15 K), the activity coefficient came out at 0.25 ± 0.03.

As for `CC(C)O` [propan-2-ol] + CCn1cc[n+](C)c1.CO[PH](=O)[O-], the activity coefficient in data set [2] (333.15 K) worked out at 0.261 ± 0.03; in data set [2] (353.15 K) it was 0.294 ± 0.031; in data set [2] (373.15 K), 0.314 ± 0.031.

For the compound `c1ccncc1` [pyridine] + CCn1cc[n+](C)c1.CO[PH](=O)[O-], the activity coefficient in data set [2] (313.15 K) stood at 1.77 ± 0.12; in data set [2] (333.15 K) it was 1.84 ± 0.12; in data set [2] (353.15 K) it was 1.95 ± 0.13; in data set [2] (373.15 K) it was 2 ± 0.14.

Take `c1ccncc1` [pyridine] + CO[PH](=O)[O-].Cn1cc[n+](C)c1: the activity coefficient in data set [2] (313.15 K) came to 2.15 ± 0.15; in data set [2] (323.15 K) it was 2.16 ± 0.15; in data set [2] (333.15 K) it was 2.17 ± 0.15; in data set [2] (343.15 K), 2.19 ± 0.15.

For the compound `ClC(Cl)(Cl)Cl` [tetrachloromethane] + CCn1cc[n+](C)c1.CO[PH](=O)[O-], the figures for the activity coefficient in data set [2] (313.15 K) and in data set [2] (333.15 K) were 4.38 ± 0.3 and 4.96 ± 0.34, respectively.

As to `ClC(Cl)(Cl)Cl` [tetrachloromethane] + CO[PH](=O)[O-].Cn1cc[n+](C)c1, the activity coefficient came out at 6.57 ± 0.45 in data set [2] (313.15 K), 6.83 ± 0.47 in data set [2] (323.15 K) and 7.03 ± 0.48 in data set [2] (333.15 K).

On to `CCCCCCCCCCCCCC` [tetradecane] + CCn1cc[n+](C)c1.CO[PH](=O)[O-], for which the activity coefficient in data set [2] (313.15 K) amounted to 3490 ± 240; in data set [2] (333.15 K), 3010 ± 210; in data set [2] (353.15 K), 2610 ± 180; in data set [2] (373.15 K) it was 2270 ± 160.

For `CCCCCCCCCCCCCC` [tetradecane] + CO[PH](=O)[O-].Cn1cc[n+](C)c1, the activity coefficient in data set [2] (313.15 K) stood at 3560 ± 250; in data set [2] (323.15 K), 3220 ± 220; in data set [2] (333.15 K), 2980 ± 210; in data set [2] (343.15 K) it was 2890 ± 200.

Take `c1ccsc1` [thiophene] + CCn1cc[n+](C)c1.CO[PH](=O)[O-]: the activity coefficient in data set [2] (313.15 K) amounted to 1.99 ± 0.14; in data set [2] (333.15 K), 2.16 ± 0.15; in data set [2] (353.15 K) it was 2.5 ± 0.17; in data set [2] (373.15 K), 2.64 ± 0.18.

Regarding `c1ccsc1` [thiophene] + CO[PH](=O)[O-].Cn1cc[n+](C)c1, the activity coefficient in data set [2] (313.15 K) came to 2.47 ± 0.17; in data set [2] (323.15 K), 2.54 ± 0.17; in data set [2] (333.15 K), 2.58 ± 0.18; in data set [2] (343.15 K), 2.6 ± 0.18.

Regarding `Cc1ccccc1` [toluene] + CCn1cc[n+](C)c1.CO[PH](=O)[O-], the activity coefficient in data set [2] (313.15 K) was 6.53 ± 0.45; in data set [2] (333.15 K), 6.63 ± 0.45; in data set [2] (353.15 K), 6.82 ± 0.46; in data set [2] (373.15 K), 7.16 ± 0.49.

On to `Cc1ccccc1` [toluene] + CO[PH](=O)[O-].Cn1cc[n+](C)c1, for which the activity coefficient in data set [2] (313.15 K) worked out at 11.5 ± 0.78; in data set [2] (323.15 K), 11.4 ± 0.78; in data set [2] (333.15 K) it was 11.3 ± 0.77; in data set [2] (343.15 K), 11.2 ± 0.77.

As for `ClC(Cl)Cl` [trichloromethane] + CCn1cc[n+](C)c1.CO[PH](=O)[O-], the activity coefficient in data set [2] (313.15 K) stood at 0.277 ± 0.03; in data set [2] (333.15 K) it was 0.358 ± 0.033; in data set [2] (353.15 K), 0.451 ± 0.036; in data set [2] (373.15 K) it was 0.544 ± 0.04.

`ClC(Cl)Cl` [trichloromethane] + CO[PH](=O)[O-].Cn1cc[n+](C)c1: the activity coefficient worked out at 0.39 ± 0.03 in data set [2] (313.15 K), 0.43 ± 0.04 in data set [2] (323.15 K), 0.48 ± 0.04 in data set [2] (333.15 K) and 0.51 ± 0.04 in data set [2] (343.15 K).

Consider `CCCCCCCCCCCCC` [tridecane] + CCn1cc[n+](C)c1.CO[PH](=O)[O-], for which the activity coefficient in data set [2] (313.15 K) worked out at 2560 ± 180; in data set [2] (333.15 K), 2130 ± 150; in data set [2] (353.15 K), 1850 ± 130; in data set [2] (373.15 K), 1300 ± 89.

`CCCCCCCCCCCCC` [tridecane] + CO[PH](=O)[O-].Cn1cc[n+](C)c1: the activity coefficient worked out at 2380 ± 160 in data set [2] (313.15 K), 2220 ± 150 in data set [2] (323.15 K), 2160 ± 150 in data set [2] (333.15 K) and 2120 ± 150 in data set [2] (343.15 K).

`CCN(CC)CC` [triethylamine] + CCn1cc[n+](C)c1.CO[PH](=O)[O-]: the activity coefficient was 30.2 ± 2.1 in data set [2] (313.15 K) and 48 ± 3.3 in data set [2] (333.15 K).

With `CCN(CC)CC` [triethylamine] + CO[PH](=O)[O-].Cn1cc[n+](C)c1, the activity coefficient was found to be 9.04 ± 0.62 in data set [2] (313.15 K) and 12.7 ± 0.9 in data set [2] (323.15 K).

Consider `CCCCCCCCCCC` [undecane] + CCn1cc[n+](C)c1.CO[PH](=O)[O-], for which the activity coefficient came out at 1340 ± 93 in data set [2] (313.15 K), 1080 ± 74 in data set [2] (333.15 K) and 888 ± 61 in data set [2] (353.15 K).

Turning to `CCCCCCCCCCC` [undecane] + CO[PH](=O)[O-].Cn1cc[n+](C)c1, the activity coefficient in data set [2] (313.15 K) stood at 1530 ± 110; in data set [2] (323.15 K), 1470 ± 100; in data set [2] (333.15 K) it was 1400 ± 97; in data set [2] (343.15 K) it was 1330 ± 92.

(Values after the NIST ThermoML archive (doi:10.1016/j.jct.2015.02.023).)
